Source: patent US20140030311A1, “MONOLITHIC INTRAVAGINAL RINGS COMPRISING PROGESTERONE AND METHODS OF MAKING AND USES THEREOF” (TEVA WOMEN'S HEALTH, INC., priority 2009, published 2014)

Experiments:
endometrium = assay: Post-study mock cycle and donor egg IVF of the two ring non-responders on other progesterone; format: in vivo, human; settings: for outcome of post-study donor egg IVF: single subject; for biopsy result in post-study mock cycle: single subject without transformation on the ring
Text: There was a fibroid found in surgery post-study, which could have affected blood supply to the endometrium. […] The subject is considering one more IVF attempt with a donor egg.

IVF cycles = settings: luteal phase support in IVF cycles; Soliman et al. 1994; cited from earlier work

SMILES | outcome of post-study donor egg IVF (endometrium) | biopsy result in post-study mock cycle (endometrium) | pregnancy rates versus placebo (IVF cycles)
CC(=O)[C@H]1CC[C@H]2[C@@H]3CCC4=CC(=O)CC[C@]4(C)[C@H]3CC[C@]12C [micronized progesterone, pregn-4-ene-3,20-dione] | negative βhCG | adequate transformation | –
CC(=O)[C@H]1CC[C@H]2[C@@H]3CCC4=CC(=O)CC[C@]4(C)[C@H]3CC[C@]12C [progesterone, pregn-4-ene-3,20-dione] | – | – | significantly higher pregnancy rates than placebo
CC(=O)[C@H]1CC[C@H]2[C@@H]3CCC4=CC(=O)CC[C@]4(C)[C@H]3CC[C@]12C [IM progesterone, pregn-4-ene-3,20-dione] | ongoing pregnancy with delivery | adequate transformation | –
